Test results as given in publication PMC6112376, “Comprehensive Analyses and Prioritization of Tox21 10K Chemicals Affecting Mitochondrial Function by in-Depth Mechanistic Studies” (Environmental Health Perspectives, 2018).
Read-outs that look alike come from different tables or passages of the source.

How the values were obtained:
[1] = system: mitochondrial respiratory chain complex I; format: biochemical, rat
[2] = biological target: T1, mitochondrial respiratory chain complex II (Rattus norvegicus, UniProt P21913+Q641Z9+Q6PCT8+Q920L2); experiment: Respiratory chain complex II activity; format: biochemical; conditions: tested up to 100μM
T1 construct: Submitochondrial particles were prepared by subjecting the intact rat mitochondria, isolated as described above, to three successive freeze–thaw cycles; from tissue; host or cells: rat liver mitochondria (submitochondrial particles)
T1 sequence (Q920L2 35-656): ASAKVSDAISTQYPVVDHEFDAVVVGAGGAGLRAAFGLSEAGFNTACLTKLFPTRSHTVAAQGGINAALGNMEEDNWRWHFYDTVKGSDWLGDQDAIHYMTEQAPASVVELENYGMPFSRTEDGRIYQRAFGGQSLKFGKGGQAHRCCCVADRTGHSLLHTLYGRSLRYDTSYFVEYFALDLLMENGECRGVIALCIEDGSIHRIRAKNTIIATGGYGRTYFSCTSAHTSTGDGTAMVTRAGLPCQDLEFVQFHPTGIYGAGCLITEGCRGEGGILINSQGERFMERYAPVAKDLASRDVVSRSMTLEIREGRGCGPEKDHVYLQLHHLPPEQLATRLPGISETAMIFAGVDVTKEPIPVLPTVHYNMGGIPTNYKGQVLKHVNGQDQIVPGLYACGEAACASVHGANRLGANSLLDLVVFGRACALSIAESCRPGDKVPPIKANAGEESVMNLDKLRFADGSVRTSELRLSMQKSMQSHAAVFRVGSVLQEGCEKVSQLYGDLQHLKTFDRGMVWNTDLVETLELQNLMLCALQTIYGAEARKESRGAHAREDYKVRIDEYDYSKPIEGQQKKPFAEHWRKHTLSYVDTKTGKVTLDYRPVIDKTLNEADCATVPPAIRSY
T1 sequence (P21913 31-282): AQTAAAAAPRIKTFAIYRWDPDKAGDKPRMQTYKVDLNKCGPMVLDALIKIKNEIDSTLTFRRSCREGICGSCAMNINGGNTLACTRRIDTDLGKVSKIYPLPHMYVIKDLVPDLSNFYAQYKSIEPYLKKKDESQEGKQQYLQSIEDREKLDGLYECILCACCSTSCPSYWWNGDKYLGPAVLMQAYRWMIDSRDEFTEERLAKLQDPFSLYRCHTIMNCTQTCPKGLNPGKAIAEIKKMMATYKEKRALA
T1 sequence (Q641Z9 1-169): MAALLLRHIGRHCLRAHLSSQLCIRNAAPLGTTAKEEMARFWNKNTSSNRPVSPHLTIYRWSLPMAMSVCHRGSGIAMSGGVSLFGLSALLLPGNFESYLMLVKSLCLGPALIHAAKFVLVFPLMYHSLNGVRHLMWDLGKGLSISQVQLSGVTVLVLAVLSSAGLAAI
T1 sequence (Q6PCT8 57-159): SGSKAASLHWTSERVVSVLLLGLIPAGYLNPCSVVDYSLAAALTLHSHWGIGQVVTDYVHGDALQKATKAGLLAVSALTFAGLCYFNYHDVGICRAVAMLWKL

[3] = system: HeLa cells expressing YFP-Parkin; experiment: Parkin translocation assay; format: cell-based, human
[4] = system: Caenorhabditis elegans (Bristol N2); experiment: C. elegans larval development and growth assay
hNSC = experiment: MMP assay in human neural stem cells (hNSC); format: cell-based; conditions: Homo sapiens, Neural stem cell, 1 h, read-out: hNSC IC50 (MMP)
[5] = system: Caenorhabditis elegans strain PE255; experiment: In vivo C. elegans ATP status assay; conditions: Caenorhabditis elegans, read-out: LEC LUM: lowest effect concentration for luminescence, a measure of nematode ATP content
HepG2 cells [6] = conditions: cited from earlier work
HepG2 cells [7] = experiment: Intracellular ATP content (cell viability) assay; format: cell-based, human; conditions: Homo sapiens, HepG2, 40 h
[8] = system: Caenorhabditis elegans (Bristol N2); conditions: Bristol N2 (wild type), Caenorhabditis elegans, in vivo
[9] = system: isolated rat liver mitochondria; experiment: Oxygen consumption, Clark-type oxygen electrode; format: biochemical
[10] = system: mitochondrial respiratory chain complex IV; format: biochemical, rat
rat primary hepatocytes [11] = experiment: MMP assay in rat primary hepatocytes; conditions: Rattus norvegicus, Hepatocyte
rat primary hepatocytes [12] = system: rat primary hepatocytes
[13] = system: mitochondrial respiratory chain complex III; format: biochemical, rat
[14] = system: mitochondrial respiratory chain complex V; format: biochemical, rat
HepG2 cells [15] = experiment: cells; conditions: Homo sapiens
[16] = system: Nrf2/ARE (ARE-bla HepG2 cells); experiment: ARE β-lactamase reporter gene assay; format: cell-based, human; conditions: Homo sapiens, HepG2, 16 h, read-out: ARE (HepG2) EC50
HepG2 cells [17] = experiment: ROS-Glo hydrogen peroxide (ROS) assay; format: cell-based, human; conditions: Homo sapiens, HepG2, 2 h, read-out: ROS (HepG2) EC50

Compound: C=C(C)[C@H]1Cc2c(ccc3c2O[C@@H]2COc4cc(OC)c(OC)cc4[C@@H]2C3=O)O1 [Rotenone, reference compound]
- inhibitory effect on Complex I at (concentration) [1]: 0.032 µM
- Complex I % inhibition ([1]; at 0.032μM): 37.5±3.32 at 0.032μM %
- Complex II % inhibition (activity call) [2]: Inactive
- Parkin recruitment [3]: Inactive
- Parkin translocation into mitochondria (in words) ([3]; 3 h): did not induce Parkin translocation
- larval growth effect at 0.5μM ([4]; 0.5 µM): severe larval growth arrest
- minimal effective concentration ([4]; Caenorhabditis elegans, read-out: LEC EXT: lowest effect concentration for extinction, a measure of nematode size): 0.05 µM
- IC50 (hNSC): 23700 nM
- minimal effective concentration [5]: 0.5 µM
- MMP assays efficacy (%) qHTS-HepG2 (HepG2 cells [6]): -104±7%
- IC50 (HepG2 cells [6]; read-out: MMP assays IC50 (µM), qHTS-HepG2): 17.4 ± 1.94 µM
- IC50 (HepG2 cells [7]; read-out: ATP (HepG2, galactose) IC50): 1630 nM
- IC50 (HepG2 cells [7]; read-out: ATP (HepG2, glucose) IC50): 1050 nM
- inhibitory effect at (concentration) on larval growth in the C. elegans assay [8]: 0.05 µM
- Potential Mechanism [9]: Inhibitor (at complex I)
- effect on mitochondrial respiration (in words) [9]: only inhibited glutamate/malate-driven respiration, but not succinate-driven respiration
- I-ADP, % of control (O2 consumption rate) ([9]; 0.00128 µM): 91 (44.7) % of control
- I-sub, % of control (O2 consumption rate) ([9]; 0.00128 µM): 113 (15.6) % of control
- II-ADP, % of control (O2 consumption rate) ([9]; 0.00128 µM): 98 (87.5) % of control
- II-sub, % of control (O2 consumption rate) ([9]; 0.00128 µM): 94 (25.3) % of control
- I-ADP, % of control (O2 consumption rate) ([9]; 0.0064 µM): 81 (40.2) % of control
- I-sub, % of control (O2 consumption rate) ([9]; 0.0064 µM): 114 (15.8) % of control
- II-ADP, % of control (O2 consumption rate) ([9]; 0.0064 µM): 83 (74.3) % of control
- II-sub, % of control (O2 consumption rate) ([9]; 0.0064 µM): 56 (15.2) % of control
- I-ADP, % of control (O2 consumption rate) ([9]; 0.032 µM): 27 (13.1) % of control
- I-sub, % of control (O2 consumption rate) ([9]; 0.032 µM): 86 (11.9) % of control
- II-ADP, % of control (O2 consumption rate) ([9]; 0.032 µM): 97 (86.1) % of control
- II-sub, % of control (O2 consumption rate) ([9]; 0.032 µM): 79 (21.4) % of control
- I-ADP, % of control (O2 consumption rate) ([9]; 0.16 µM): 20 (9.9) % of control
- I-sub, % of control (O2 consumption rate) ([9]; 0.16 µM): 71 (9.9) % of control
- II-ADP, % of control (O2 consumption rate) ([9]; 0.16 µM): 107 (95.0) % of control
- II-sub, % of control (O2 consumption rate) ([9]; 0.16 µM): 97 (26.3) % of control
- I-ADP, % of control (O2 consumption rate) ([9]; 0.8 µM): 18 (8.9) % of control
- I-sub, % of control (O2 consumption rate) ([9]; 0.8 µM): 64 (8.9) % of control
- II-ADP, % of control (O2 consumption rate) ([9]; 0.8 µM): 99 (88.3) % of control
- II-sub, % of control (O2 consumption rate) ([9]; 0.8 µM): 99 (26.9) % of control
- I-ADP, % of control (O2 consumption rate) ([9]; 4 µM): 19 (9.5) % of control
- I-sub, % of control (O2 consumption rate) ([9]; 4 µM): 64 (8.8) % of control
- II-ADP, % of control (O2 consumption rate) ([9]; 4 µM): 97 (86.3) % of control
- II-sub, % of control (O2 consumption rate) ([9]; 4 µM): 97 (26.2) % of control
- I-ADP, % of control (O2 consumption rate) ([9]; 20 µM): 18 (8.8) % of control
- I-sub, % of control (O2 consumption rate) ([9]; 20 µM): 62 (8.6) % of control
- II-ADP, % of control (O2 consumption rate) ([9]; 20 µM): 95 (84.3) % of control
- II-sub, % of control (O2 consumption rate) ([9]; 20 µM): 107 (28.9) % of control
- Complex IV % inhibition (activity call) [10]: Inactive
- IC50 (rat primary hepatocytes [11]; 1 h, read-out: Rat hepatocytes IC50 (MMP)): 0.36 µM
- IC50 (rat primary hepatocytes [11]; read-out: MMP assays IC50 (µM) Rat Hepatocytes): 0.2 ± 0.3 µM
- MMP assays efficacy (%) Rat Hepatocytes (rat primary hepatocytes [12]): -86+39%
- Rat hepatocytes (efficacy) (MMP) (rat primary hepatocytes [12]): 0.36±0.22 ( −85.9±10.7 ) %
- Complex III % inhibition (activity call) [13]: Inactive
- Complex V % inhibition (activity call) [14]: Inactive
- IC50 (HepG2 cells [15]; HepG2, 1 h, read-out: HepG2 IC50 Galactose (MMP)): 31.8 µM
- IC50 (HepG2 cells [15]; HepG2, 1 h, read-out: HepG2 IC50 Glucose (MMP)): 44.7 µM
- IC50 (HepG2 cells [15]; HepG2, read-out: MMP assays IC50 (µM) HepG2): 0.0123 µM
- Emax (HepG2 cells [15]; HepG2, read-out: MMP assays efficacy (%) HepG2): 95%
- EC50 [16]: 50 ± 20 nM
- EC50 (HepG2 cells [17]): 4040 nM
